Test results published in publication PMC6713216, “Dual-target anti-Alzheimer’s disease agents with both iron ion chelating and monoamine oxidase-B inhibitory activity” (Journal of Enzyme Inhibition and Medicinal Chemistry, 2019).
Where two headings read alike, the source gives them in different places.

Key:
Human MAO-B = molecular target: T1, Human MAO-B (Homo sapiens, UniProt P27338); assay: Determination of human MAO-B inhibitory activity (Monoamine Oxidase Assay Kit, fluorescence); type: biochemical; conditions: for inhibition at 1 µM: read-out: Inhibitory rate (%) 1 μM; for inhibition at 10 µM: compound at 10 μM, read-out: Inhibitory rate (%) 10 μM
T1 construct: purchased Sigma-Aldrich
T1 sequence (P27338 1-520): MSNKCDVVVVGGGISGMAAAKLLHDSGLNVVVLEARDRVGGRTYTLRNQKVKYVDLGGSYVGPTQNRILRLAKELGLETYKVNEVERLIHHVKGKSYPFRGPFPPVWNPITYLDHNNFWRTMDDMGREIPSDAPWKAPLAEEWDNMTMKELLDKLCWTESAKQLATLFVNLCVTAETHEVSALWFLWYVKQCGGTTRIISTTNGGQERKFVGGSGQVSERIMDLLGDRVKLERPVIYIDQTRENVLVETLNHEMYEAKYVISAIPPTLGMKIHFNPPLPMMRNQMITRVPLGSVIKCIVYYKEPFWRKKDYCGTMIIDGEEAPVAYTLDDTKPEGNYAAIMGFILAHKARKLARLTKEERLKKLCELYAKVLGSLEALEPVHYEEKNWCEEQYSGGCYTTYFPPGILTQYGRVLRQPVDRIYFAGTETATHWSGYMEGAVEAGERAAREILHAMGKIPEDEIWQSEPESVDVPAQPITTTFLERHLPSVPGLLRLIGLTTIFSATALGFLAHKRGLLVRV
Protocol: Human MAO-B (5 mg/mL) was purchased from Sigma-Aldrich and was pre-aliquoted and stored at -70 °C. 200 μL enzymatic reactions were diluted in 2 ml microcentrifuge tubes by potassium phosphate buffer (Assay Buffer, pH 7.4) which have been provided by Sigma-Aldrich Monoamine Oxidase Assay Kit. The final volumes of the reactions were 100 μL and contained 45 μL MAO-B (0.0075 mg/mL), included 5 μL different concentrations of the testing inhibitors (10 μM, 1 μM), and 50 μL Master Reaction, p-Tyramine, HRP Enzyme and Dye Reagent. Stock solutions of the compounds were prepared in DMSO.

[1] = Determination of iron(III) affinity (Logβ1, Logβ2, Logβ3) by spectrophotometric titration; type: physicochemical; conditions: DMSO:KCl (0.1 M) = 2:3 (V/V), 25 °C; for Logβ1: compound:iron 1.1:1; for Logβ2 / Logβ3: compound:iron 5:1
Protocol: (§1) The automatic titration system used in the test consisted of an automatic titrator, a luminescence 759 s UV-Vis spectrophotometer, and a pH Meter (Mettler Toledo InLab Expert PRO/Mettler Toledo InLab Science). All instruments are controlled by a computer program.
(§2) The testing solution (2:3 DMSO/KCl (0.1 M), V/V) was maintained at 25 °C using a TP-3A temperature controller. The cuvette is mounted on a spectrophotometer. The E0 and s of the pH Meter were calibrated by three standard solutions (pH = 6.86, 9.18, 4.00). KCl solution (0.1 M) was used to maintain the ionic strength. For the Fe(III) affinity evaluation, the ratio of compounds to iron ion was kept at 1.1:1 (n/n) when Logβ1 was measured; the ratio of compounds to iron ion was kept at 5:1 (n/n) when Logβ2 and Logβ3 were tested.
A 45 ml KCl (0.1 M) solution was added to the cuvette (50 mm) and the pH value was acidified to 2.1. Then 30 μM DMSO solution of the testing compound and 60 μL acidic solution of FeCl3 (15 mM) were added separately, and the mixture was vigorously stirred. After the absorbance value is stabilised, a certain amount of HCl solution (4 M) was added by the automatic buret to reduce the pH of the solution by 0.1. After the system was equilibrated, the spectral scan was performed once after 20 min. This protocol was repeated until the specified endpoint of the pH value was reached. All data was recorded with the internal Visual Basic program, HypSpec2014 program was utilised for the data analysis.
Similarly, 45 ml KCl (0.1 M) solution was added to the cuvette (50 mm) and the pH value was acidified to 2.1. Then 30 μM DMSO solution of the testing compound and 60 μL acidic solution of FeCl3 (15 mM) were added separately, and the mixture was vigorously stirred. After the absorbance value is stabilised, a certain amount of KOH solution (0.1 M) was added by the automatic buret to increase the pH of the solution by 0.1. After the system was equilibrated, the spectral scan was performed once after 5 min. This protocol was repeated until the specified endpoint of the pH value was reached. All data were recorded with the internal Visual Basic program, HypSpec2014 program was utilised for the data analysis[5]^,[21]^,[22].

[2] = pKa determination by automatic spectrophotometric titration; type: physicochemical; conditions: DMSO/0.1 M KCl 2:3 (V/V) solution, DMSO:KCl (0.1 M) = 2:3 (V/V), 25 °C
Protocol: as §1, §2
The titration was performed in a 50 mm path length cuvette. 45 ml KCl (0.1 M) solution, 40 μL of saturated EDTA solution were added to the cuvette. The pH value of the solution was acidified to 2.0 with hydrochloric acid (1.5 M). Then 20 μL of test compound DMSO solution (30 μM/L) was added and stirred vigorously. By adding KOH solution (0.1 M) from the automatic buret, the pH value of the solution was increased by 0.1. […] Adding KOH solution (0.1 M) and repeated the automatic process until the specified endpoint of pH value was reached. All data were recorded internally by the Visual Basic program, and the test results are analysed by the HypSpec2014 program.

[3] = Calculation of pFe3+ by HySS software from pKa and logβ values; type: physicochemical; conditions: DMSO:KCl (0.1 M) = 2:3 (V/V); calculated by HySS from pKa1, pKa2, logβ1-3
Protocol: The values of pFe^3+ were calculated by HySS software according to the results of pKa1, pKa2, logβ1, logβ2, and logβ3 determined by the above methods. The basic parameters were set as follows: FeOH = –2.563, Fe(OH)2 = –6.205, Fe(OH)3 = –15.1, Fe2(OH)2 = –2.843, Fe3(OH)4 = –6.059, Fe(OH)4 = –21.883[23].

[4] = pKa determination by automatic spectrophotometric titration; type: physicochemical; conditions: 0.1 M KCl solution, Figure 2; 0.1 M KCl at 25 °C; read-out: pKa1 (Figure 2, printed as pH at curve crossing)

inhibition at 1 µM (Human MAO-B; compound at 1 μM)	inhibition at 10 µM (Human MAO-B)	melting point	pKa ([2]; read-out: pKa1)	pKa ([2]; read-out: pKa2)	pKa [4]	Inhibitory rate (%) 1 μM (Human MAO-B; compound at 1 μM, 1 µM)	Compound	Logβ1 [1]	Logβ2 [1]	Logβ3 [1]	pFe3+ [3]	IC50 (Human MAO-B)
> 20%	96.2%	212 to 215 °C	2.7	9.2			Cc1cc(=O)c(O)c(CO)n1CCn1cc(COc2ccc3ccc(=O)oc3c2)nn1 [Compound 27a, 3-hydroxy-2-(hydroxymethyl)-6-methyl-1–(2-(4-(((2-oxo-2H-chromen-7-yl)oxy)methyl)-1H-1,2,3-triazol-1-yl)ethyl)pyridin-4(1H)-one]	13.8	24.0	33.7	18.9	
1.84%	91%		3.3	9.7			Cc1cc(=O)c(O)c(C)n1CCn1cc(COc2ccc3ccc(=O)oc3c2)nn1 [Compound 27c, 3-hydroxy-2,6-dimethyl-1–(2-(4-(((2-oxo-2H-chromen-7-yl)oxy)methyl)-1H-1,2,3-triazol-1-yl)ethyl)pyridin-4(1H)-one]	14.9	26.0	34.1	18.0	
9.67%	98.3%	263 to 265 °C	3.4	10			Cc1cc(=O)c(O)c(C)n1CCCn1cc(COc2ccc3ccc(=O)oc3c2)nn1 [Compound 27d, 3-hydroxy-2,6-dimethyl-1–(3-(4-(((2-oxo-2H-chromen-7-yl)oxy)methyl)-1H-1,2,3-triazol-1-yl)propyl)pyridin-4(1H)-one]	14.9	26.3	34.8	17.6	
1.23%	95.7%		3.2	9.8			CCc1c(O)c(=O)ccn1CCCn1cc(COc2ccc3ccc(=O)oc3c2)nn1 [Compound 27e, 2-ethyl-3-hydroxy-1–(3-(4-(((2-oxo-2H-chromen-7-yl)oxy)methyl)-1H-1,2,3-triazol-1-yl)propyl)pyridin-4(1H)-one]	14.7	26.0	33.2	17.1	
> 30%	93.3%	253 to 256 °C	3.4	9.8			CCc1c(O)c(=O)ccn1CCn1cc(COc2cc(=O)oc3ccccc23)nn1 [Compound 27f, 2-ethyl-3-hydroxy-1–(2-(4-(((2-oxo-2H-chromen-4-yl)oxy)methyl)-1H-1,2,3-triazol-1-yl)ethyl)pyridin-4(1H)-one]	14.9	25.7	32.8	16.7	
> 20%	89.5%	195 to 198 °C	3.2	9.7			CCc1c(O)c(=O)ccn1CCCn1cc(COc2cc(=O)oc3ccccc23)nn1 [Compound 27g, 2-ethyl-3-hydroxy-1–(3-(4-(((2-oxo-2H-chromen-4-yl)oxy)methyl)-1H-1,2,3-triazol-1-yl)propyl)pyridin-4(1H)-one]	14.6	25.6	33.1	17.1	
13.2%	85.7%	142 to 148 °C	3	9.1			Cc1cc(=O)c(O)c(CO)n1CCn1cc(COc2cc(=O)oc3ccccc23)nn1 [Compound 27h, 3-hydroxy-2-(hydroxymethyl)-6-methyl-1–(2-(4-(((2-oxo-2H-chromen-4-yl)oxy)methyl)-1H-1,2,3-triazol-1-yl)ethyl)pyridin-4(1H)-one]	13.3	24.8	33.2	18.7	
> 30%	94%	258 to 261 °C	2.9	9.6			CCc1c(O)c(=O)ccn1CCn1cc(COc2cc3ccccc3oc2=O)nn1 [Compound 27i, 2-ethyl-3-hydroxy-1–(2-(4-(((2-oxo-2H-chromen-3-yl)oxy)methyl)-1H-1,2,3-triazol-1-yl)ethyl)pyridin-4(1H)-one]	14.2	25.4	32.8	17.0	
62%	88.8%	192 to 195 °C	3.3	9.8	3.4	62.43%	CCc1c(O)c(=O)ccn1CCCn1cc(COc2cc3ccccc3oc2=O)nn1 [Compound 27j, 2-ethyl-3-hydroxy-1–(3-(4-(((2-oxo-2H-chromen-3-yl)oxy)methyl)-1H-1,2,3-triazol-1-yl)propyl)pyridin-4(1H)-one]	14.6	25.7	33.5	17.1	860 nM
> 30%	90.5%		3.3	9.1			Cc1cc(=O)c(O)c(CO)n1CCCn1cc(COc2cc3ccccc3oc2=O)nn1 [Compound 27k, 3-hydroxy-2-(hydroxymethyl)-6-methyl-1–(3-(4-(((2-oxo-2H-chromen-3-yl)oxy)methyl)-1H-1,2,3-triazol-1-yl)propyl)pyridin-4(1H)-one]	13.6	24.5	33.0	18.4	

Compound	inhibition at 1 µM (Human MAO-B; compound at 1 μM)	inhibition at 10 µM (Human MAO-B)	melting point	pKa ([2]; read-out: pKa1)	pKa ([2]; read-out: pKa2)	pKa [4]	Inhibitory rate (%) 1 μM (Human MAO-B; compound at 1 μM, 1 µM)	Logβ1 [1]	Logβ2 [1]	Logβ3 [1]	pFe3+ [3]	IC50 (Human MAO-B)
Cc1cc(=O)c(O)c(CO)n1CCCn1cc(COc2ccc3ccc(=O)oc3c2)nn1 [Compound 27b, 3-hydroxy-2-(hydroxymethyl)-6-methyl-1–(3-(4-(((2-oxo-2H-chromen-7-yl)oxy)methyl)-1H-1,2,3-triazol-1-yl)propyl)pyridin-4(1H)-one]				2.8	8.8			12.9	25.5	33.5	19.8	680 nM
